Reference: patent US5246989A, “Photochromic compound, composition and use thereof” (priority 1990, dated 1993)

Key:
[1] = Photochromic characteristics of cast polymethyl methacrylate film (coloration under mercury lamp, fading); type: physicochemical; conditions: PMMA film, 1.0×10^-4 mol/g, 0.1 mm, 35° C.
[2] = Photochromic characteristics of 2 mm molded thermosetting resin piece containing the spiroxazine; type: physicochemical
Method: The compound synthesized in Example 1, which was represented by the following formula: [drawing 286] was dissolved and dispersed in polymethyl methacrylate with the aid of benzene, and a cast film was prepared on a slide glass sheet (11.2 cm×3.7 cm) so that the concentration of the compound in the film was 1.0×10^-4 mol/g and the thickness of the film was 0.1 mm. The photochromic film was irradiated with rays of a mercury lamp (SHL-100 supplied by Toshiba) located 10 cm apart from the film at 35° C.+1° C. for 60 seconds to effect coloration in the film, and the photochromic characteristics were examined with respect to items described below.
Maximum absorption wavelength (λmax):
The maximum absorption wavelength λmax of the colored film was determined by using a spectrophotometer (220 A supplied by Hitachi).
After 60 seconds' irradiation under the above-mentioned conditions, the absorbance at the maximum absorption wavelength was measured.
The absorbance at the maximum absorption wavelength of the unirradiated film was measured. Half-value period t^1/2 :
After 60 seconds' irradiation, the time required for reduction of the absorbance of the film to 1/2 of [ε(60 seconds)-ε(0 second)] was measured.
0.4 parts by weight of the spiroxazine synthesized in Example 1 was added to a composition of 70 parts by weight of chlorostyrene with 30 parts by weight of 2,2-bis(3,5-dibromo-4-methacryloyloxyethoxyphenyl) propane. One part by weight of perbutyl ND was added to the composition as an initiator of radical polymerization and was sufficiently mixed. The mixture liquid was casted into a mold comprising a glass plate and a gasket made of an ethylene-vinyl acetate copolymer and was polymerized in the mold. The mold was placed in an air oven. Polymerization was carried out by gradually elevating the temperature of the air oven from 30° C. to 90° C. for 18 hours and keeping it at 90° C. over a period of 2 hours. After the termination of the polymerization, the mold was removed from the air oven. After the mold was allowed to cool, the polymer molded piece was removed from the glass of the mold.
The photochromic characteristics of the obtained molded piece having a thickness of 2 mm was measured in the same method as Example 65.
Excepting that the kinds and amounts of the monomers and the spiroxazine used in Example 129 were changed and polymerization was carried out by a known means depending on the monomers, Examples 130 to 144 are identical with Example 129.

[3] = Example 129: BMDBP/c1-st (30/70), compound 0.4 parts, 2 mm
[4] = Example 130: ADC (100), compound 0.001 parts
[5] = Example 131: TMP-TAC(100), compound 0.4 parts
[6] = Example 132: BADBP/DAP (60/40), compound 0.4 parts
[7] = Example 133: BMDBP/st (50/50), compound 10 parts
[8] = Example 134: DCIPF/st (70/30), compound 70 parts
[9] = Example 135: EGDMA/st (50/50), compound 30 parts
[10] = Example 136: monomer composition drawn as drawing 288, compound 1.0 parts
[11] = Example 137: monomer composition drawn as drawing 289, compound 0.6 parts
[12] = Example 138: DVB/PETTP(60/40), compound 0.03 parts
[13] = Example 139: XIC/DME (58/42), compound 0.2 parts
[14] = Example 140: XIC/HPA/DVB (10/50/40), compound 0.4 parts
[15] = Example 141: MMA/DEGDMA (70/30), compound 0.1 parts
[16] = Example 142: BADBPO/TBBM/DAP (50/30/20), compound 0.1 parts
[17] = Example 143: HEMA/XIC/BMA (30/20/50), compound 0.1 parts
[18] = Example 144: DEGDMA/BMA (40/60), compound 0.1 parts

CN1c2ccccc2C2(CCCCC2)C12C=Nc1ccc3ccccc3c1O2 (stereo not drawn) [Compound 1]
t1/2 (half-value period of absorbance after irradiation) ([1]; after 60 seconds' irradiation): 18 s | λ max (maximum absorption wavelength of the colored film) ([1]; mercury lamp 60 seconds): 601 | ε (60 seconds)-ε (0 second) ([1]; mercury lamp 60 seconds, absorbance at λmax): 1.4 | t1/2 [2, 3]: 20 s | ε(60 sec)-ε(0 sec) [2, 3]: 1.6 | λmax [2, 3]: 604 nm | t1/2 [2, 4]: 24 s | ε(60 sec)-ε(0 sec) [2, 4]: 0.9 | λmax [2, 4]: 607 nm | t1/2 [2, 5]: 28 s | ε(60 sec)-ε(0 sec) [2, 5]: 1.5 | λmax [2, 5]: 607 nm | t1/2 [2, 6]: 21 s | ε(60 sec)-ε(0 sec) [2, 6]: 1.5 | λmax [2, 6]: 606 nm | t1/2 [2, 7]: 20 s | ε(60 sec)-ε(0 sec) [2, 7]: 1.7 | λmax [2, 7]: 604 nm | t1/2 [2, 8]: 18 s | ε(60 sec)-ε(0 sec) [2, 8]: 1.8 | λmax [2, 8]: 604 nm | t1/2 [2, 9]: 19 s | ε(60 sec)-ε(0 sec) [2, 9]: 1.7 | λmax [2, 9]: 604 nm | t1/2 [2, 10]: 20 s | ε(60 sec)-ε(0 sec) [2, 10]: 1.6 | λmax [2, 10]: 601 nm | t1/2 [2, 11]: 22 s | ε(60 sec)-ε(0 sec) [2, 11]: 1.6 | λmax [2, 11]: 601 nm | t1/2 [2, 12]: 22 s | ε(60 sec)-ε(0 sec) [2, 12]: 1.5 | λmax [2, 12]: 606 nm | t1/2 [2, 13]: 19 s | ε(60 sec)-ε(0 sec) [2, 13]: 1.5 | λmax [2, 13]: 604 nm | t1/2 [2, 14]: 19 s | ε(60 sec)-ε(0 sec) [2, 14]: 1.6 | λmax [2, 14]: 604 nm | t1/2 [2, 15]: 18 s | ε(60 sec)-ε(0 sec) [2, 15]: 1.6 | λmax [2, 15]: 601 nm | t1/2 [2, 16]: 23 s | ε(60 sec)-ε(0 sec) [2, 16]: 1.6 | λmax [2, 16]: 606 nm | t1/2 [2, 17]: 22 s | ε(60 sec)-ε(0 sec) [2, 17]: 1.6 | λmax [2, 17]: 601 nm | t1/2 [2, 18]: 19 s | ε(60 sec)-ε(0 sec) [2, 18]: 1.6 | λmax [2, 18]: 601 nm
